In patent US7348317B2, “Aqueous compositions containing metronidazole” (Dow Pharmaceutical Sciences, priority 2001, dated 2008):

How the values were obtained:
Type in all cases: physicochemical
[1] = Physical stability of 1.0% metronidazole gel solutions with BCD and niacinamide at 5° C.
[2] = Physical stability of BCD solutions in gel vehicle stored at 5° C.; details: for Results after storage at 5° C.: monitored weekly for two weeks
Description: Different solutions according to Table 1 were made with varying concentrations of beta-cyclodextrin (BCD). The solutions of BCD were maintained at 5° C. monitored weekly for two weeks for signs of crystal or precipitate formation.

[3] = Physical stability / stable solubility of metronidazole in gel vehicle containing 0.5% BCD at 5° C.; details: for Result at 5° C., 1 week: BCD 0.5 % w/w, gel vehicle
Description: Different concentrations of metronidazole were prepared with the gel vehicle of Example 1 containing 0.5% BCD. The metronidazole (MTZ)/BCD solutions were maintained at 5° C. for one week.

[4] = Physical stability of 1.0% metronidazole gel solutions with BCD and niacinamide at 5° C.; details: Metronidazole 1.0 % w/w
Description: Various gel solutions of Table 1 were prepared with a concentration of 1.0% metronidazole and containing either 0.5% or 1.0% BCD and differing concentrations of niacinamide. The gels were maintained at 5° C. for one week to observe for precipitate or crystal formation.

[5] = Physical stability of 1.0% metronidazole gel solutions with niacin at 5° C.; details: MTZ 1.0 % w/w, pH 5.0+/−0.15, gel
Description: The pH was adjusted to 5.0+/−0.15 with trolamine. The solutions were maintained at 5° C. for one week to observe evidence of precipitation or crystal formation.

[6] = Physical stability of 1% metronidazole solutions with 0.5% niacin and varying BCD at 5° C.; details: for Results, 5° C., 1 week: MTZ 1.0 % w/w, niacin 0.5 % w/w, pH 5.0+/−0.15
Description: The solutions were maintained at 5° C. for one week to observe for crystal or precipitate formation.

[7] = BCD at its maximum soluble aqueous concentration (0.5%), 5° C.

In the case of `NC(=O)c1cccnc1` [niacinamide], the “concentration of niacinamide required to obtain a stable aqueous gel solution of 1.0% metronidazole” value ([1]; niacinamide alone, no BCD) is reported as “about 3%”.
In the case of `OC[C@H]1O[C@@H]2O[C@H]3[C@H](O)[C@@H](O)[C@@H](O[C@H]4[C@H](O)[C@@H](O)[C@@H](O[C@H]5[C@H](O)[C@@H](O)[C@@H](O[C@H]6[C@H](O)[C@@H](O)[C@@H](O[C@H]7[C@H](O)[C@@H](O)[C@@H](O[C@H]8[C@H](O)[C@@H](O)[C@@H](O[C@H]1[C@H](O)[C@H]2O)O[C@@H]8CO)O[C@@H]7CO)O[C@@H]6CO)O[C@@H]5CO)O[C@@H]4CO)O[C@@H]3CO` [BCD, beta-cyclodextrin], the “saturated BCD solubility in the aqueous solutions” value ([2]; 5° C., aqueous solution such as gel) is reported as “about 0.5%”, the “Results after storage at 5° C.” value ([2]; BCD 0.5 % w/w in gel vehicle of Table 1) is reported as “Clear after 2 weeks” and the “Results after storage at 5° C.” value ([2]; BCD 0.6 % w/w in gel vehicle of Table 1) is reported as “Crystals formed after 2 weeks”. For the same compound, the “Results after storage at 5° C.” value ([2]; BCD 0.7 % w/w in gel vehicle of Table 1) was “Crystals at one week”, the “Results after storage at 5° C.” value ([2]; BCD 0.9 % w/w in gel vehicle of Table 1) was “Crystals at one week” and the “Results after storage at 5° C.” value ([2]; BCD 1.0 % w/w in gel vehicle of Table 1) was “Crystals at one week”. For the same compound, the “Results after storage at 5° C.” value ([2]; BCD 1.2 % w/w in gel vehicle of Table 1) was “Crystals at one week”, the “Results after storage at 5° C.” value ([2]; BCD 1.4 % w/w in gel vehicle of Table 1) was “Crystals at one week” and the “Results after storage at 5° C.” value ([2]; BCD 1.5 % w/w in gel vehicle of Table 1) was “Crystals at one week”.
For `Cc1ncc([N+](=O)[O-])n1CCO` [MTZ, 1-(2-hydroxyethyl)-2-methyl-5-nitroimidazole], the “increase of stable solubility of MTZ by BCD” value [3, 7] was 0.1%, the “stable solubility of MTZ in aqueous solution with BCD” value [3, 7] was 0.8% and the “Result at 5° C., 1 week” value ([3]; MTZ 0.7 % w/w) was “Clear”. For the same compound, the “Result at 5° C., 1 week” value ([3]; MTZ 0.8 % w/w) was “Clear”, the “Result at 5° C., 1 week” value ([3]; MTZ 0.9 % w/w) was “Crystals formed” and the “stable solubility of MTZ in aqueous solution, unaided” value ([3]; aqueous solution such as a gel, 5° C., without solubility enhancer) was 0.7%. For the same compound, the “stable solubility of metronidazole in the gel vehicle” value ([3]; gel vehicle containing 0.5% BCD, 5° C.) was “about 0.8 % w/w”, the “Results at 5° C., 1 week” value ([4]; BCD 0.5 % w/w, niacinamide 0.5 % w/w) was “Crystals formed” and the “Results at 5° C., 1 week” value ([4]; BCD 0.5 % w/w, niacinamide 1.0 % w/w) was “Clear”. The “Results at 5° C., 1 week” value ([4]; BCD 0.5 % w/w, niacinamide 2.0 % w/w) was “Clear”, the “Results at 5° C., 1 week” value ([4]; BCD 1.0 % w/w, niacinamide 0.5 % w/w) was “Precipitate formed” and the “Results at 5° C., 1 week” value ([4]; BCD 1.0 % w/w, niacinamide 1.0 % w/w) was “Clear”. The “Results at 5° C., 1 week” value ([4]; BCD 1.0 % w/w, niacinamide 2.0 % w/w) was “Clear”, the “Results, 5° C., 1 week” value ([5]; niacin 0.10 % w/w) was “Crystals formed” and the “Results, 5° C., 1 week” value ([5]; niacin 0.15 % w/w) was “Crystals formed”. The “Results, 5° C., 1 week” value ([5]; niacin 0.25 % w/w) was “Crystals formed”, the “Results, 5° C., 1 week” value ([5]; niacin 0.5 % w/w, seven out of eight samples showed crystal formation) was “Clear/Crystals formed*” and the “Results, 5° C., 1 week” value ([5]; niacin 1.0 % w/w) was “Clear”. The “Results, 5° C., 1 week” value ([5]; niacin 1.2 % w/w) was “Clear”, the “Results, 5° C., 1 week” value ([5]; niacin 1.5 % w/w) was “Clear” and the “Results, 5° C., 1 week” value ([5]; niacin 1.8 % w/w) was “Clear”. For the same compound, the “Results, 5° C., 1 week” value ([5]; niacin 2.0 % w/w) was “Clear”, the “Results, 5° C., 1 week” value ([5]; niacin […] w/w) was “Clear” and the “solubility of MTZ with niacin and BCD combined” value ([6]; 0.5% niacin combined with 0.5% BCD, pH of about 5) was 1%. The “Results, 5° C., 1 week” value ([6]; BCD 0.2 % w/w) was “Crystals formed”, the “Results, 5° C., 1 week” value ([6]; BCD 0.3 % w/w) was “Crystals formed” and the “Results, 5° C., 1 week” value ([6]; BCD 0.5 % w/w) was “Clear”. For the same compound, the “MTZ aqueous solubility with niacinamide” value [1] was 1%, the “increase of MTZ aqueous solubility by niacinamide” value ([1]; 3% concentration of niacinamide) was 0.3% and the “solubility of MTZ above its unaided solubility with BCD and niacinamide combined” value ([1]; BCD at amount expected to yield 0.1% increase plus niacinamide at one third of the amount that raises solubility by 0.3%) was 0.3%.
